Experimental findings from patent US8933029B2, “Antimicrobial and anti-inflammatory peptides” (Carrus Capital Corporation, priority 2001, dated 2015) are described below.

Marks after values point to notes of the source that are not given here. Ends that are not written are not given here.

One assay concerns TPA-induced ear edema. The assay can be described thus: TPA ear edema model. The settings on record: for Topical Dose (% change vs. vehicle) 1.0%: topical 1.0%; for Topical Dose (% change vs. vehicle) 1.0% / Topical Dose (% change vs. vehicle) 5 0% / Topical Dose (% change vs. vehicle) 0.1%: ear biopsy weight six hours after TPA; for Systemic Dose (% change vs. vehicle) 5 mg/kg: systemic 5 mg/kg; for Topical Dose (% change vs. vehicle) 0.1%: topical 0.1%.

The subject of assay [1] is oxazolone contact hypersensitivity (ear inflammation). In words: Oxazolone contact hypersensitivity model. The format is in vivo, CD-1 mice. The settings on record: Dosage of 0.1%, applied to ear one hour after oxazolone challenge, ear punch weight after 24 h, 70% EtOH/30% propylene glycol vehicle. On the procedure:
Briefly, a 3.0% (w/v) solution of oxazolone in acetone/corn oil (5:1) is applied topically to the skin on the shaved abdomens of mice of approximately the same weight and approximately the same age on day 0. […] Twenty-four hours later a dermal biopsy punch of the treated ear is taken and weighed.
CD-1 mice are treated with 3% oxazolone (Sigma) (30 mg/ml) in corn oil:acetone on a shaved abdomen. All solutions are sonicated for 7 minutes. Five days later, the mice are challenged with a 2% oxazolone (20 mg/ml) in acetone on the left ear, with the right ear being left untreated (control). One hour after challenge, the candidate peptide in a 70% EtOH/30% propylene glycol formulation (vehicle) was applied to the left ear, with the right ear being left untreated. After 24 h, 7 mm ear punches are taken from each ear of the mice. The ear punches are placed on a scale and the difference between the treated and untreated ears were compared. The percent inhibition of inflammation was calculated by comparing the mean of each treated group to the control group. The positive control is hydrocortisone (a known anti-inflammatory agent). Most of the indolicidin peptides inhibited inflammation as well as hydrocortisone.

Another assay has as its system IL-6. The assay can be described thus: Inhibition of cytokine production in PHA-activated PBLs (ELISA). The format is cell-based. The note with it: human PBLs, 10 μg/ml PHA, 48 hours, supernatant ELISA. On the procedure: (§1) Briefly, human PBLs are collected from a subject and plated at 10^6 cells/ml in serum free lymphocyte growth medium, stimulated with 10 μg/ml phytohemagglutinin (PHA) in the presence or absence of the candidate peptide. The PBLs are incubated at 37° C. at 5% CO2 for 48 h, at which point the supernatants were collected. An ELISA is performed on the supernatants to detect a cytokine of interest (e.g., IL-1, TNF-α, IFN-γ) and the cells are incubated for another 72 h to measure proliferation (see, e.g., Sigusch et al., J. Periodontol. 69:1098, 1998).
(§2) Human peripheral blood lymphocytes (PBLs) were collected from a healthy adult […] and plated at 10^6 cells/ml in serum free lymphocyte growth media in a 96-well plate. The PBLs were stimulated with 10 μg/ml PHA in the presence or absence of test sample and incubated at 37° C. at 5% CO2 for 48 hours. Collected and pooled supernatants were stored at −20° C., then assayed with commercially available ELISA kits (Endogen and Biosource) and assayed for viability with LDH (Bochringer Mannheim). The cells remaining after supernatant removal were returned to the incubator and proliferation was determined at 72 hours by using AlamarBlue (Alamar Bioscience). Compounds were tested at 1, 10, 100 and 1000 μg/ml. The peptides were effective at inhibiting cytokine production and PBL proliferation (Table 4), which indicates these peptides can function as anti-inflammatory agents.

Another assay relates to IL-12. Described as above. Format: cell-based. The settings on record: human PBLs, 10 μg/ml PHA, 48 hours, supernatant ELISA. The protocol:
as §1, §2
Background: ELISA stands for enzyme-linked immunosorbent assay.

In another assay the test system is IFNγ. The assay is described as above. Format: cell-based. The note with it: human PBLs, 10 μg/ml PHA, 48 hours, supernatant ELISA. The protocol: as §1, §2
A further assay has as its system TNFα. The assay is described as above. The settings on record: human PBLs, 10 μg/ml PHA, 48 hours, supernatant ELISA. The format is cell-based. On the procedure:
as §1, §2

In the next assay the test system is IL-2. Described as above. The settings on record: human PBLs, 10 μg/ml PHA, 48 hours, supernatant ELISA. The format is cell-based. On the procedure:
as §1, §2

The subject of the next assay is IL-1α. The assay is described as above. Format: cell-based. The settings on record: human PBLs, 10 μg/ml PHA, 48 hours, supernatant ELISA. The protocol:
as §1, §2

The next assay has as its system IL-10. The assay is described as above. The format is cell-based. The note with it: human PBLs, 10 μg/ml PHA, 48 hours, supernatant ELISA. The protocol:
as §1, §2

A further assay concerns IL-4. The description is as above. Format: cell-based. The note with it: human PBLs, 10 μg/ml PHA, 48 hours, supernatant ELISA. On the procedure: as §1, §2
The mark [2] stands for this setting: formulated in 50% ethanol/5 mM lactate buffer (*).
Setting [3] is: topical 5 0%, formulated in 50% ethanol/5 mM lactate buffer (*).

As to “I L T W P W W P W T T T (ILTWPWWPWTTT-{CN}) [Peptide 11B24CN]”, the “Topical Dose (% change vs. vehicle) 1.0%” value with TPA-induced ear edema (formulated in 95% ethanol) was −32%. The “Topical Dose (% change vs. vehicle) 5 0%” value in the assay with TPA-induced ear edema (topical 5.0%, formulated in 95% ethanol) is −64%.
As to “ILRWVWWVWRRK-NH2 [Peptide 11F4CN, I L R W V W W V W R R K]”, the “Topical Dose (% change vs. vehicle) 1.0%” value in the assay on TPA-induced ear edema (formulated in 95% ethanol) is −55%.
As for “L R F L K W A F R L W K L (LRFLKWAFRLWKL-{CN}) [Peptide 11J45CN]”, in the assay with TPA-induced ear edema (formulated in 95% ethanol), the “Topical Dose (% change vs. vehicle) 1.0%” value was −69%.
Same read-out and setting: in the case of “R L G G G G G G R R (RLGGGGGGRR-{CN}) [Peptide 11F83CN]” it was −28%; in that of “R L L V W W V L R R (RLLVWWVLRR-{CN}) [Peptide 11F82CN]”, −62%.
As for “R L W V V V V W R R (RLWVVVVWRR-{CN}) [Peptide 11F65CN]”, the “Systemic Dose (% change vs. vehicle) 5 mg/kg” value in the assay on TPA-induced ear edema was −15%. In the assay on TPA-induced ear edema (formulated in 95% ethanol), the “Topical Dose (% change vs. vehicle) 1.0%” value is recorded as −94%.
In the case of “R L W V W W V W (RLWVWWVW-{CN}) [Peptide 11F11CN]”, in the assay on TPA-induced ear edema (setting [2]), the “Topical Dose (% change vs. vehicle) 0.1%” value is recorded as −49* % and the “Topical Dose (% change vs. vehicle) 1.0%” value is listed as −75* %. For the same substance, the “Topical Dose (% change vs. vehicle) 1.0%” value in the assay with TPA-induced ear edema (formulated in 95% ethanol) was −87%.
“R L W W Q Q W W R R (RLWWQQWWRR-{CN}) [Peptide 11F60CN]”: in the assay with TPA-induced ear edema (formulated in 95% ethanol), the “Topical Dose (% change vs. vehicle) 1.0%” value is −41%.
Turning to “RLVVWVVWRR-NH2 [Peptide 11F66CN, R L V V W V V W R R]”, in the assay on TPA-induced ear edema (setting [2]), the “Topical Dose (% change vs. vehicle) 0.1%” value is −17* % and the “Topical Dose (% change vs. vehicle) 1.0%” value is reported as −64* %. In addition, the “Topical Dose (% change vs. vehicle) 5 0%” value in the assay on TPA-induced ear edema (setting [3]) is listed as −81* %. For the same substance, in [1], the “% Inhibition of Inflammation” value amounted to 79.85%. For the same substance, the “IC50 IL-6” value with IL-6 was 1 µg/mL. The “IC50 IL-12” value in the assay with IL-12 turned out to be 280 µg/mL. In the assay with IFNγ, the “IC50 IFNγ” value worked out at 125 µg/mL. In addition, the “IC50 TNFα” value in the assay on TNFα was 110 µg/mL. For the same substance, the “IC50 IL-2” value in the assay with IL-2 stood at 480 µg/mL. Besides, the “IC50 IL-1α” value in the assay on IL-1α is above 1000 µg/mL. The “IC50 IL-10” value with IL-10 came to 40 µg/mL. The “IC50 IL-4” value in the assay with IL-4 was above 1000 µg/mL.
On to RLVVWVVWRRX-OH [Peptide 11F110], for which, in the assay on TPA-induced ear edema (setting [2]), the “Topical Dose (% change vs. vehicle) 0.1%” value is recorded as −45* % and the “Topical Dose (% change vs. vehicle) 1.0%” value was −83* %. Further, the “Topical Dose (% change vs. vehicle) 5 0%” value in the assay on TPA-induced ear edema (setting [3]) is −87* %.
With “RLWVWWVWRR-NH2 [Peptide 11F17CN, R L W V W W V W R R]”, the “% Inhibition of Inflammation” value in assay [1] is on record as 71.60%. Besides, the “IC50 IL-6” value in the assay on IL-6 was found to be 500 µg/mL. Moreover, the “IC50 IL-12” value in the assay on IL-12 stood at 120 µg/mL. In addition, in the assay with IFNγ, the “IC50 IFNγ” value turned out to be 93 µg/mL. Also, the “IC50 TNFα” value with TNFα was 70 µg/mL. The “IC50 IL-2” value with IL-2 was above 1000 µg/mL. Further, in the assay on IL-1α, the “IC50 IL-1α” value was found to be 45 µg/mL. Also, the “IC50 IL-10” value in the assay on IL-10 was 18 µg/mL. Further, in the assay on IL-4, the “IC50 IL-4” value amounted to 220 µg/mL.
In the case of “RLWVWWVWRRK-NH2 [Peptide 11F12CN, R L W V W W V W R R K]”, the “Topical Dose (% change vs. vehicle) 1.0%” value in the assay with TPA-induced ear edema (formulated in 95% ethanol) is recorded as −56%. Besides, in assay [1], the “% Inhibition of Inflammation” value is listed as 86.50%. The “IC50 IL-6” value with IL-6 came to 140 µg/mL. The “IC50 IL-12” value in the assay with IL-12 amounted to 120 µg/mL. Besides, in the assay on IFNγ, the “IC50 IFNγ” value amounted to 250 µg/mL. In the assay on TNFα, the “IC50 TNFα” value worked out at 68 µg/mL. In addition, the “IC50 IL-2” value in the assay on IL-2 was determined as 570 µg/mL. In the assay with IL-1α, the “IC50 IL-1α” value worked out at 500 µg/mL. Also, the “IC50 IL-10” value in the assay with IL-10 turned out to be 30 µg/mL. Also, in the assay on IL-4, the “IC50 IL-4” value was 325 µg/mL.
As to “W (Dab) W W (Dab) P (Dab) W (Dab) W P (Dab) W [Peptide 11J68CN]”, the “Topical Dose (% change vs. vehicle) 1.0%” value in the assay on TPA-induced ear edema (setting [2]) is listed as −55* %. Further, the “Topical Dose (% change vs. vehicle) 5 0%” value in the assay on TPA-induced ear edema (setting [3]) is −85* %.
The corresponding values for “W (Orn) W W (Orn) P (Orn) W (Orn) W P (Orn) W [Peptide 11J67CN]” are −33* % and −66* %.
On to “W R L L K L A L R L L K W (WRLLKLALRLLKW-{CN}) [Peptide 11J44CN]”, for which the “Systemic Dose (% change vs. vehicle) 5 mg/kg” value in the assay on TPA-induced ear edema is recorded as −32%. Besides, the “Topical Dose (% change vs. vehicle) 1.0%” value with TPA-induced ear edema (formulated in 95% ethanol) is recorded as −88%.
On to “Y R Y Y K P K Y R Y P K Y (YRYYKPKYRYPKY-{CN}) [Peptide 11J32CN]”, for which, in the assay on TPA-induced ear edema (formulated in 95% ethanol), the “Topical Dose (% change vs. vehicle) 1.0%” value was −30%.
